Laboratory results reported in patent publication US20140194321A1 (CELLOMICS, INC., priority 2013, published 2014).
Where two headings read alike, the source gives them in different places.

Assays:
[1] = system: U937 cells; assay: High-content imaging skin sensitizing prediction assay: U937 cells treated 24 h with a range of compound concentrations, CD54 intensity per cell and cell number dose response curves qualified, decision matrix applied; conditions: for CD54/Cell Result: qualified dose response curve (increasing/flat/decreasing) of CD54 intensity per cell; for CD54/Cell Result / Cell Number Result: U937 cells, 24 hours compound treatment, range of concentrations; for Cell Number Result: qualified dose response curve (increasing/flat/decreasing) of number of cells; for Outcome: skin sensitivity prediction from decision matrix of FIG. 8 (CD54/cell vs cell number), Toxic* = at concentrations tested
Source text: (§1) In step 160, the data corresponding to the different compound concentrations is normalized. In one embodiment, measurements generated from the vehicle-treated cell image analysis can be used. […] As such, a normalization of the data obtained from the compound-treated cells can be determined by subtracting the baseline response of the vehicle-treated cells from the measurements of the responses of the compound-treated cells. Measured values of the compound-treated cells that are below baseline levels can be notated as lacking a response, and can be ignored in further analysis, if desired.
(§2) This can be done by calculating a mean value for the measured target at each concentration level, taking into account all of the samples corresponding to the particular concentration level.
(§3) For example, mean values for gross markers can be computed for the number of cells using either the number of cell bodies or the number of nuclei detected. For specific markers, mean values can be computed for each of the features (e.g., CD54 (ICAM-1) intensity). […] Other mean values can also be used. In addition, other representative values can also be used for each concentration of the compound, such as a highest measured value, a lowest measured value, or other representative values.
(§4) This can be done by plotting on a graph the average value of the target for each concentration. […] Using the plotted points, a simple curve 170 can be generated, as shown. This simple curve represents the dose response curve.
(§5) In one embodiment, qualifying the dose response curve can be accomplished by categorizing the curve as “increasing,” “decreasing,” or “flat.”
(§6) The predefined range can be determined using a standard deviation value, a percentage of total range, or a percentage of highest value. […] In the experimental results, discussed below, the predefined range was determined using a percentage of the highest value for the curve.
(§7) In step 170, a decision matrix is applied to the qualified dose response of one or more of the measured parameters to predict skin sensitization. The qualified dose response of any of the measured cellular targets can be used. For example, the cellular targets used in the decision matrix can be selected from the gross markers, specific markers and/or the functional response of the cells. Using the selected properties, a decision matrix can be constructed based upon the expected behavior of the cell type in response to the compound used. The dose response curve behavior (e.g., “increasing,” “flat,” or “decreasing”) of the measured cellular properties can then be used to determine the prediction of sensitizing capability of the compound. In some embodiments, the decision matrix can also be used to determine if the compound is toxic.
(§8) To determine a predicted skin sensitivity of a tested compound, one simply finds the matrix location corresponding to both of the qualified dose responses determined for the tested compound, and the entry within that matrix location identifies the predicted skin sensitivity of the compound.
(§9) The compounds for which skin sensitivity is desired can then be introduced to the immune effector cells. For each concentration level of each compound, 100 μl of the 2× concentrated compound solution can be added to the corresponding wells. Similarly, 100 μl of vehicle solution can be added to the vehicle control wells and the 2× solution of the negative and positive controls can be added to the negative and positive control wells, respectively. The plate can then be incubated for 24 hours at 37° C. in 5% CO2.
(§10) After incubation, the plate can be centrifuged for 5 minutes at 125×g. The media can then be aspirated from the wells after which 50 μl of pre-warmed (e.g., to 37° C.) 4% paraformaldehyde can be added to each well.

[2] = system: U937 cells
Source text: as §1, §2, §3, §4, §5, §6, §7, §8, §9, §10

Molecule | CD54/Cell Result [1] | Cell Number Result [1] | Outcome [1] | Outcome [2]
Nc1ccccc1O [2-aminophenol] | Increase | Increase | Sensitizer | –
N#CCCC(Br)(C#N)CBr (centres unmarked) [2bromo-2bromomethylglutaronitrile] | Decrease | – | Toxic* | –
C=CC(=O)OCCO [2hydroxyethylacrylate] | Increase | Increase | Sensitizer | –
CC(C)=O [Acetone] | Increase | Decrease | Sensitizer | –
O=Cc1ccccc1 [Benzylaldehyde] | Increase | Increase | Sensitizer | –
CN(C)C=O [DMF] | Increase | Increase | – | Sensitizer
C[S+](C)[O-] [DMSO] | Decrease | Increase | – | Non-sensitizer
CCOC(=O)c1ccccc1C(=O)OCC [Diethyl Phthalate] | Decrease | Decrease | Toxic* | –
CCO [Ethanol] | Decrease | Increase | Non-sensitizer | –
CCOc1cc(C=O)ccc1O [Ethyl Vanillin] | Decrease | Decrease | – | Toxic*
CC(C)=CCC/C(C)=C/CO [Geraniol] | Increase | Increase | Sensitizer | –
OCC(O)CO [Glycerol] | Flat | – | Non-sensitizer | –
O=CC=O [Glyoxal] | Increase | Decrease | Sensitizer | –
CC(C)O [Isopropanol] | Decrease | – | Non-sensitizer | –
CC(O)C(=O)O (centres unmarked) [Lactic Acid] | Decrease | Decrease | Toxic* | –
CCCCCCCC(=O)O [Octanoic Acid] | Increase | Increase | Sensitizer | –
NCCNc1ccccc1 [Phenylethylenediamine] | Decrease | Increase | Non-sensitizer | –
CC(O)CO (centres unmarked) [Propylene Glycol] | Decrease | Flat | Non-sensitizer | –
O=C(O)c1ccccc1O [Salicylic Acid] | Decrease | Decrease | Toxic* | –
CCCCCCCCCCCCOS(=O)(=O)[O-].[Na+] [Sodium Lauryl Sulfate] | Increase | Increase | Sensitizer | –
CCCCCCCC/C=C\CCCCCCCC(=O)OCCOCC(OCCO)C1OCC(OCCO)C1OCCO (centres unmarked) [Tween 80] | Decrease | Increase | Non-sensitizer | –
Butanol | Flat | Increase | – | –
